Drawing on patent publication US8232269B2, “Amide compounds useful in therapy” (Pfizer Inc., priority 2008, dated 2012), this text covers Ki for 20 molecules.

Counter-ions that a name gives are not always drawn. Bounds are passed on as bounds.

This experiment has as its target T1, Progesterone Receptor (PR) (Homo sapiens, UniProt P06401).
T1 construct: endogenous in cells; host or cells: T47D human breast mammary carcinoma cells
T1 sequence (P06401 1-933): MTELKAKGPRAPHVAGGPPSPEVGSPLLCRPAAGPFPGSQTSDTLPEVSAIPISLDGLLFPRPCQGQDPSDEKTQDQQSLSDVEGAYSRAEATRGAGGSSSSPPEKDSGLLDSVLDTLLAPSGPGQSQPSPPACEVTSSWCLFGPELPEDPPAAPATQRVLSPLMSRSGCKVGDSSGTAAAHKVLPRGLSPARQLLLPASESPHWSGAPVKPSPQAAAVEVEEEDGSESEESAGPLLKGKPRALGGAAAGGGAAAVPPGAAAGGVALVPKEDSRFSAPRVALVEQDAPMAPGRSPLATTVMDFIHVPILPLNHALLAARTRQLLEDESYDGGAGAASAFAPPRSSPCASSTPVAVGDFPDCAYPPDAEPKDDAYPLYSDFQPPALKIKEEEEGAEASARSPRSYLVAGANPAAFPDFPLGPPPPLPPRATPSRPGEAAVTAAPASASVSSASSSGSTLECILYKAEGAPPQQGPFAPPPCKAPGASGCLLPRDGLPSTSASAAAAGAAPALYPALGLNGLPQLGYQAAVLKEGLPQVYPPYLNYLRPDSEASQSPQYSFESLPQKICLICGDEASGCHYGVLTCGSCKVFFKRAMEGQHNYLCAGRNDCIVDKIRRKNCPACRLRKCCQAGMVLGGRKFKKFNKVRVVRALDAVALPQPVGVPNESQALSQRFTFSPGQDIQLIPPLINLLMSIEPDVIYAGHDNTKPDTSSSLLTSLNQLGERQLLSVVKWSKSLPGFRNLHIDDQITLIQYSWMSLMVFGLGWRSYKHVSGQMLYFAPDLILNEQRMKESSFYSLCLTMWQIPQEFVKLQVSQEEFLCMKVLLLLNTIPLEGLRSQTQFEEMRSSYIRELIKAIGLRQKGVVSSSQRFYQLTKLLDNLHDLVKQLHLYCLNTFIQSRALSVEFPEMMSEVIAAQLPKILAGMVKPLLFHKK
Nature of the experiment: In vitro functional assay for progesterone receptor (PR) antagonists: inhibition of progesterone-induced alkaline phosphatase expression in T47D cells. Conditions: antagonist format, 5 nM progesterone, Ki calculated from IC50 with the Cheng-Prusoff equation. The class given is cell-based. From the text:
1.0 In vitro Functional Assay for Progesterone Receptor (PR) Antagonists, Agonists and Modulators
The assay for PR antagonism takes advantage of the extensively reported modulation of alkaline phosphatase (AP) expression in human breast T47D mammary carcinoma cells {Beck et al., D. P. (1993). The progesterone antagonist RU486 acquires agonist activity upon stimulation of cAMP signalling pathways. Proc Natl Acad Sci USA 90, 4441-4445; Fensome et al. (2002). New progesterone receptor antagonists: 3,3-disubstituted-5-aryloxindoles. Bioorg Med Chem Lett 12, 3487-3490; Zhang et al., (2002a). 6-Aryl-1,4-dihydro-benzo d1,3oxazin-2-ones: a novel class of potent, selective, and orally active nonsteroidal progesterone receptor antagonists. Journal of Medicinal Chemistry 45, 4379-4382; Zhang et al., (2003). Novel 6-aryl-1,4-dihydrobenzo d oxazine-2-thiones as potent, selective, and orally active nonsteroidal progesterone receptor agonists. Bioorganic & Medicinal Chemistry Letters 13, 1313-1316; Zhang et al., (2002b). Potent nonsteroidal progesterone receptor agonists: synthesis and SAR study of 6-aryl benzoxazines. Bioorganic & Medicinal Chemistry Letters 12, 787-790; Zhang, Z. et al., (2000). In vitro characterization of trimegestone: a new potent and selective progestin. Steroids 65, 637-643}. […] In the absence of progesterone any agonist activity is also observed as an induction of AP activity. By running the assay in two formats (+/−progesterone (P4)), compounds behaving as PR antagonists, agonists, partial agonists or modulators with mixed agonist/antagonist activity can be identified.
Briefly, T47D cells are grown by propagating in DMEM with phenol red+10% FCS+2 mM Glutamine at 37° C./5% CO2. At 70-80% confluence, the media is exchanged for phenol red free DMEM+5% CS-FCS (Assay media). Cells are incubated overnight in assay media then harvested and frozen in assay media containing 10% DMSO at 1.5e7 cells/mL in 2 mL aliquots using a Planer and immediately stored in liquid nitrogen. Vials are removed from liquid nitrogen storage and immediately thawed in a water bath at 37° C. The cell suspension is added dropwise to 20 mL of assay media, then the tube centrifuged at 1000 rpm for 4 minutes, the supernatant is discarded and the pellet re-suspended in 20 mL assay media. T47D cells are then plated at 8750 cells/well in 35 μL assay media in sufficient white solid 384 well TC plates for the assay. For the agonist format assay a further 10 μL of assay media is added to each well. These plates are then cultured for 3-6 hours at 37° C./5% CO2 before compound addition.
Test substances are prepared by in 100% DMSO, half log concentrations from 4 mM in 384 well plates 5 μL/well (referred to here as ‘grandmother plates’). Progesterone is 100 μM made up in ethanol and PBS (i.e. add 1 mL ethanol to progesterone initially to help dissolving) and stored in 0.5-1 mL aliquots at −20° C.
Using a multidrop (Thermolabsystems), 60 μL/well of buffer is added to a 384 well plate—this will be the ‘mother plate’. _Add 45 μL well buffer to grandmother plate using the multidrop (=400 μM 10% DMSO dilution). Mixed and spun to remove air bubbles. • 20 μL is taken from the grandmother plate (400 μM 10% DMSO) and added to the mother plate (=100 μM 2.5% DMSO). Mixed and spun to remove air bubbles Preparation of Max/Min:
Antagonist Min: (Checker Pattern on Plate Map) 1 μM RU-486 (FAC 0.1 μM) • 50 μL of 0.2 mM RU-486 • 10 mL Diluent Addition of Test Substance to Cell Plates • The PlateMate Plus was used to add 5 μL MAX/MIN to cell plates • Then 5 μL test substances are added from the mother plate (after removing max/min PlateMate tips: columns 1 and 24)
Addition of Agonist (5 nM Progesterone FAC) for Antagonist Format Only
25 nM progesterone in assay media is prepared from 100 μM stock (12.5 μL progesterone/50 mL media), from which 10 μL per well is transferred to the assay plate using the PlateMate Plus (already containing cells & compound). […]
For `Cc1c(-c2ccc(C#N)cc2)nn(C2CCOC2)c1C(=O)NC(C)C` (single isomer, unassigned) [Example 77 Ent 1, 3-(4-Cyanophenyl)-N-isopropyl-4-methyl-1-(tetrahydrofuran-3-yl)-1H-pyrazole-5-carboxamide], the Ki was 69.5 nM.

Regarding `Cc1c(-c2ccc(C#N)cc2)nn(C2CCOC2)c1C(=O)NC(C)C` (single isomer, unassigned) [Example 77 Ent 2, 3-(4-Cyanophenyl)-N-isopropyl-4-methyl-1-(tetrahydrofuran-3-yl)-1H-pyrazole-5-carboxamide], the Ki is 102 nM.

In the case of `Cc1c(-c2ccc(C#N)cc2)nn(C2CCOC2)c1C(=O)NC[C@H](C)O` (single isomer, unassigned) [Example 78 Diast 1], the inhibition constant (Ki) was over 242 nM.

As to `Cc1c(-c2ccc(C#N)cc2)nn(C2CCOC2)c1C(=O)NC[C@H](C)O` (single isomer, unassigned) [Example 78 Diast 2], the Ki was 49.4 nM.

As to `Cc1c(-c2ccc(C#N)cc2)nn(C2CCOC2)c1C(=O)NC[C@@H](C)O` (single isomer, unassigned) [Example 79 Diast 1], the Ki is over 766 nM.

On to `Cc1c(-c2ccc(C#N)cc2)nn(C2CCOC2)c1C(=O)NC[C@@H](C)O` (single isomer, unassigned) [Example 79 Diast 2], for which the inhibition constant (Ki) is 163 nM.

With `Cc1c(-c2ccc(C#N)cc2)nn(C2CCOC2)c1C(=O)NCC(C)(C)O` (single isomer, unassigned) [Example 80 Ent 1, 3-(4-Cyanophenyl)-N-(2-hydroxy-2-methylpropyl)-4-methyl-1-(tetrahydrofuran-3-yl)-1H-pyrazole-5-carboxamide], the Ki is 57.1 nM.

For the molecule `Cc1c(-c2ccc(C#N)cc2)nn(C2CCOC2)c1C(=O)NCC(C)(C)O` (single isomer, unassigned) [Example 80 Ent 2, 3-(4-Cyanophenyl)-N-(2-hydroxy-2-methylpropyl)-4-methyl-1-(tetrahydrofuran-3-yl)-1H-pyrazole-5-carboxamide], the Ki is over 733 nM.

As for `CCc1c(-c2ccc(C#N)cc2)nn(C(C)CC)c1C(=O)NCC(C)(C)O` (single isomer, unassigned) [Example 106 Ent 1, 1-sec-Butyl-3-(4-cyanophenyl)-4-ethyl-N-(2-hydroxy-2-methylpropyl)-1H-pyrazole-5-carboxamide], the Ki is 14.8 nM.

Regarding `CCc1c(-c2ccc(C#N)cc2)nn(C(C)CC)c1C(=O)NCC(C)(C)O` (single isomer, unassigned) [Example 106 Ent 2, 1-sec-Butyl-3-(4-cyanophenyl)-4-ethyl-N-(2-hydroxy-2-methylpropyl)-1H-pyrazole-5-carboxamide], the Ki is 38.2 nM.

On to `CCc1c(-c2ccc(C#N)cc2)nn(C(C)CC)c1C(=O)NCC(=O)NC` (single isomer, unassigned) [Example 109 Ent 1, 1-sec-Butyl-3-(4-cyanophenyl)-4-ethyl-N-[2-(methylamino)-2-oxoethyl]-1H-pyrazole-5-carboxamide], for which the Ki was 99 nM.

Take `CCc1c(-c2ccc(C#N)cc2)nn(C(C)CC)c1C(=O)NCC(=O)NC` (single isomer, unassigned) [Example 109 Ent 2, 1-sec-Butyl-3-(4-cyanophenyl)-4-ethyl-N-[2-(methylamino)-2-oxoethyl]-1H-pyrazole-5-carboxamide]: the Ki was 190 nM.

As for `CCC(=O)N1CCC(NC(=O)c2c(C3CC3)c(-c3ccc(C#N)cc3)nn2C(C)C)C1` (stereo in doubt) [Example 12, 3-(4-Cyanophenyl)-4-cyclopropyl-1-isopropyl-N-[(3S)-1-propionylpyrrolidin-3-yl]-1H-pyrazole-5-carboxamide], the Ki is 17.2 nM.

With `CC(C)n1nc(-c2ccc(C#N)cc2)c(C2CC2)c1C(=O)NCC(C)(C)O` [Example 1, 3-(4-Cyano-phenyl)-4-cyclopropyl-N-(2-hydroxy-2-methylpropyl)-1-isopropyl-1H-pyrazole-5-carboxamide], the Ki was 19.8 nM.

`CC(C)n1nc(-c2ccc(C#N)cc2)c(C2CC2)c1C(=O)NC[C@H](C)O` [Example 2, 3-(4-Cyano-phenyl)-4-cyclopropyl-N-[(2S)-2-hydroxypropyl]-1-isopropyl-1H-pyrazole-5-carboxamide]: the Ki was 9.39 nM.

Turning to `CC(C)n1nc(-c2ccc(C#N)cc2)c(C2CC2)c1C(=O)NC[C@@H](C)O` [Example 3, 3-(4-Cyano-phenyl)-4-cyclopropyl-N-[(2R)-2-hydroxypropyl]-1-isopropyl-1H-pyrazole-5-carboxamide], the Ki is 13.9 nM.

Take `CC(C)NC(=O)c1c(C2CC2)c(-c2ccc(C#N)cc2)nn1C(C)C` [Example 4, 3-(4-Cyano-phenyl)-4-cyclopropyl-N,1-diisopropyl-1H-pyrazole-5-carboxamide]: the Ki was 7.06 nM.

Regarding `CC(C)n1nc(-c2ccc(C#N)cc2)c(C2CC2)c1C(=O)N[C@@H]1CCN(C(=O)OC(C)(C)C)C1` [Example 5, tert-Butyl (3R)-3-({[3-(4-cyanophenyl)-4-cyclopropyl-1-isopropyl-1H-pyrazol-5-yl]carbonyl}amino)-pyrrolidine-1-carboxylate], the Ki is 7.92 nM.

Regarding `CC(C)n1nc(-c2ccc(C#N)cc2)c(C2CC2)c1C(=O)NC1CN(C(=O)OC(C)(C)C)C1` [Example 7, tert-Butyl 3-({[3-(4-cyanophenyl)-4-cyclopropyl-1-isopropyl-1H-pyrazol-5-yl]carbonyl}amino)azetidine-1-carboxylate], the Ki was 9.73 nM.

Turning to `CC(C)n1nc(-c2ccc(C#N)cc2)c(C2CC2)c1C(=O)N[C@@H]1CCNC1` [Example 8, 3-(4-Cyanophenyl)-4-cyclopropyl-1-isopropyl-N-[(3R)-pyrrolidin-3-yl]-1H-pyrazole-5-carboxamide hydrochloride], the Ki is 162 nM.

By Ki is commonly meant a measure of affinity in units of concentration, obtained from inhibition or displacement.
